The values that follow come from ChEMBL document CHEMBL1144839, “Cytotoxic bastadin 24 from the Australian sponge Ianthella quadrangulata” (J Nat Prod, 2008).

This experiment deals with HUVEC. Description: Antiangiogenic activity in HUVEC cells assessed as inhibition of hEGF-induced tubular formation at 1 ug/mL after 24 hrs relative to control. The class given is functional, Homo sapiens. On the set-up: scale not given: the % may be the effect or the level left.

For the molecule `O=C1N/C=C/c2ccc(c(Br)c2)Oc2cc(cc(Br)c2O)CCNC(=O)/C(=N/O)Cc2ccc(c(Br)c2)Oc2cc(cc(Br)c2O)C/C1=N\O` [BASTADIN 7], the Activity was determined as 37.3%.
